Laboratory results from PubChem BioAssay (NCI).
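Compound exposure: 48 hours, 5 concentrations, 96-well plates. GI50 = concentration required for 50% inhibition of growth. TGI is the concentration that stops growth completely.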

Tests used:
Assay in all cases: NCI anticancer screen, dose series, 48 h
786-0 renal = system: 786-0 renal
HCT-15 colon = system: HCT-15 colon
K-562 leukemia = system: K-562 leukemia
NCI-H522 lung = system: NCI-H522 lung
OVCAR-3 ovarian = system: OVCAR-3 ovarian
SK-MEL-28 melanoma = system: SK-MEL-28 melanoma
SK-MEL-5 melanoma = system: SK-MEL-5 melanoma
SNB-19 CNS = system: SNB-19 CNS
U251 CNS = system: U251 CNS
UACC-257 melanoma = system: UACC-257 melanoma

| Structure (SMILES) | GI50 (786-0 renal) | TGI (786-0 renal) | GI50 (HCT-15 colon) | TGI (HCT-15 colon) | GI50 (K-562 leukemia) | TGI (K-562 leukemia) | GI50 (NCI-H522 lung) | TGI (NCI-H522 lung) | GI50 (OVCAR-3 ovarian) | TGI (OVCAR-3 ovarian) | GI50 (SK-MEL-28 melanoma) | TGI (SK-MEL-28 melanoma) | GI50 (SK-MEL-5 melanoma) | TGI (SK-MEL-5 melanoma) | GI50 (SNB-19 CNS) | TGI (SNB-19 CNS) | GI50 (U251 CNS) | TGI (U251 CNS) | GI50 (UACC-257 melanoma) | TGI (UACC-257 melanoma) |
| --- | --- | --- | --- | --- | --- | --- | --- | --- | --- | --- | --- | --- | --- | --- | --- | --- | --- | --- | --- | --- |
| CCOc1ccc([C@@H]2[C@@H](Oc3ccccc3)C(=O)N2c2cc(OC)c(OC)c(OC)c2)cc1 | 0.0896 µM | > 100 µM | 0.186 µM | > 100 µM | 0.0367 µM | > 100 µM | 0.0323 µM | 0.371 µM | 0.0355 µM | > 100 µM | 1.89 µM | > 100 µM | 0.0395 µM | 1.16 µM | 0.289 µM | > 100 µM | 0.0462 µM | > 100 µM | 86.4 µM | > 100 µM |
| NC(N)=NS(=O)(=O)c1ccc(NCc2c3ccccc3nc3ccccc23)cc1 | – | 9.65 µM | – | > 100 µM | – | > 93.6 µM | – | 26.9 µM | – | 49.6 µM | – | > 97.1 µM | – | 62.8 µM | – | 20.7 µM | – | 10.9 µM | – | > 69.3 µM |
| COc1ccccc1-n1c(-c2cc(O)ccc2C)cn2c3c(=O)[nH]c(=O)n(C)c3nc12 | 6.24 µM | > 100 µM | 54.7 µM | > 100 µM | 0.31 µM | > 100 µM | 1.79 µM | > 100 µM | 4.28 µM | > 100 µM | > 100 µM | > 100 µM | 53.2 µM | > 100 µM | > 100 µM | > 100 µM | 22.2 µM | > 100 µM | > 100 µM | > 100 µM |
| CC(C)(C)NN=C1C(C)(C)C(=NNC(C)(C)C)C1(C)C | – | > 100 µM | – | > 100 µM | – | > 100 µM | – | > 100 µM | – | > 100 µM | – | > 100 µM | – | > 100 µM | – | > 100 µM | – | > 100 µM | – | > 100 µM |
| CC(=O)c1c(C(F)(F)F)n([O-])c2ccc(Cl)cc2[n+]1=O | 0.0551 µM | 0.382 µM | 0.649 µM | 4.05 µM | 0.509 µM | 3.52 µM | 2.5 µM | 9.62 µM | 2.64 µM | 8.13 µM | 1.97 µM | 6.31 µM | 0.822 µM | 2.65 µM | 4.75 µM | > 27.6 µM | 0.772 µM | 4.89 µM | 4 µM | 20.8 µM |
| NS(=O)(=O)c1cc2c(cc1Cl)NC(Cc1ccccc1)NS2(=O)=O (stereo not drawn) | – | > 100 µM | – | > 100 µM | – | > 100 µM | – | > 100 µM | – | > 100 µM | – | > 100 µM | – | > 100 µM | – | > 100 µM | – | > 100 µM | – | > 100 µM |
| CSC(C1c2ccccc2N(C)C2=NC(=O)N(C)C(=O)C21Cl)S(=O)(=O)c1ccc(C)cc1 (stereo not drawn) | – | 33.2 µM | – | > 100 µM | – | 43.5 µM | – | 30.8 µM | – | 43.3 µM | – | 75.4 µM | – | > 100 µM | – | > 100 µM | – | > 100 µM | – | > 100 µM |
| COC1=CC(O)(CC(N)=O)c2ccccc2C1=O (stereo not drawn) | – | > 100 µM | – | > 100 µM | – | > 100 µM | – | > 100 µM | – | > 100 µM | – | > 100 µM | – | > 100 µM | – | > 100 µM | – | > 100 µM | – | > 100 µM |
| CCC(C)n1cc(C)c2c(C(=O)NCc3c(C)cc(C)[nH]c3=O)cc(Br)cc21 (stereo not drawn) | > 100 µM | > 100 µM | 29 µM | > 100 µM | 34.6 µM | > 100 µM | 38 µM | > 100 µM | 44.5 µM | > 100 µM | 72.5 µM | > 100 µM | 13.2 µM | 29.1 µM | > 100 µM | > 100 µM | 62.8 µM | > 100 µM | 32.8 µM | > 100 µM |
| CC/C=C1\N=C(c2ccc(Cl)cc2)OC1=O | – | > 100 µM | – | > 100 µM | – | > 100 µM | – | > 100 µM | – | > 100 µM | – | > 100 µM | – | – | – | > 100 µM | – | – | – | > 100 µM |
| C1CCN(CCC2CCCCN2)CC1 (stereo not drawn) | – | > 100 µM | – | > 100 µM | – | > 100 µM | – | > 100 µM | – | > 100 µM | – | > 100 µM | – | > 100 µM | – | > 100 µM | – | > 100 µM | – | > 100 µM |
| C=C/C=C(\NC(=O)C(Cl)(Cl)Cl)[Si](C)(C)C | – | > 100 µM | – | > 100 µM | – | > 100 µM | – | > 100 µM | – | > 100 µM | – | > 100 µM | – | > 100 µM | – | > 100 µM | – | > 100 µM | – | > 100 µM |
| COc1ccc(Nn2c(SCC(=O)Nc3nc(-c4ccc(Cl)cc4)cs3)nc(C)c2C)cc1 | 3.46 µM | 18.2 µM | 4.79 µM | > 100 µM | 1.58 µM | > 100 µM | 5.05 µM | > 100 µM | 3.13 µM | 24.2 µM | 18 µM | > 100 µM | 1.41 µM | 3.35 µM | 6.19 µM | > 100 µM | 4.03 µM | > 100 µM | 2.97 µM | 41.1 µM |
| CC(C)CCOc1ccc(-c2n[nH]c(C(F)(F)F)c2-c2cncc(C#N)c2)c(O)c1 | 2.96 µM | 13.1 µM | 2.4 µM | 13.4 µM | 1.87 µM | > 100 µM | 1.8 µM | 10 µM | 3.17 µM | 16.3 µM | 2.17 µM | > 100 µM | 0.943 µM | 2.57 µM | 2.98 µM | 31.5 µM | 2 µM | 8.4 µM | 1.69 µM | 5.54 µM |
| Cc1cc(N(CCC#N)S(C)(=O)=O)ccc1C=O | – | > 100 µM | – | > 100 µM | – | > 100 µM | – | > 100 µM | – | > 100 µM | – | > 100 µM | – | > 100 µM | – | > 100 µM | – | > 100 µM | – | > 100 µM |
| O=[N+]([O-])c1ccc(-c2nc(-c3ccccc3)c(-c3ccccc3)n2-c2ccccc2)cc1 | 4.82 µM | 22.3 µM | 2.82 µM | 8.76 µM | 3.24 µM | 95.9 µM | 3.05 µM | > 28.4 µM | 2.43 µM | 6.67 µM | 2.99 µM | 9.97 µM | 1.8 µM | 3.81 µM | 3.75 µM | > 48.8 µM | 2.74 µM | 10.7 µM | 2.39 µM | 5.87 µM |
